Assay results from patent publication US10590106B2, “Certain chemical entities, compositions, and methods” (NeuPharma, Inc., priority 2012, dated 2020).
Like-named read-outs stand apart in the source and are kept apart here.

Columns and labels:
A549 cells = test: Inhibition of cancer cell growth, MTT or MTS assay, A549; assay type: cell-based; conditions: Homo sapiens, 72 h incubation
Summary of the method: (§1)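 Cells in RPMI 1640 with 10% FBS were seeded at ~2000 (A375) or 4000 (A549, Colo205) per well, grown 24 h, then exposed to compound 72 h at 1% final DMSO. Read-out by MTT (570 nm) or MTS (490 nm). IC50 from concentration vs percent inhibition, triplicates.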

KDR (VEGFR2) = KDR (VEGFR2) (Homo sapiens (Human), UniProt P35968); test: Inhibitory activity against kinase KDR, Z'-LYTE method (Invitrogen); assay type: biochemical; conditions: for inhibition at 1 µM: read-out: Inhibition (% inhibition at 1 μM) against KDR
Summary of the method: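 Human KDR (VEGFR2) kinase inhibition was measured with Invitrogen's Z′-LYTE® method. A 2× mixture of KDR and Tyr 01 peptide is made in 50 mM HEPES pH 7.5, 0.01% BRIJ-35, 10 mM MgCl2, 1 mM EGTA. Each 10 μL reaction holds 0.5-11.7 ng enzyme and 2 μM Tyr 01. It incubates for 1 hour, then 5 μL of Development Reagent B diluted 1:256 is added.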

A375 cells = test: Inhibition of cancer cell growth, MTT or MTS assay, A375; assay type: cell-based; conditions: Homo sapiens, A-375; 72 h incubation
Summary of the method: as §1

Colo205 cells = test: Inhibition of cancer cell growth, MTT or MTS assay, Colo205; assay type: cell-based; conditions: Homo sapiens, COLO 205; 72 h incubation
Method: Inhibition of cell growth by compounds was measured using MTT or MTS assay. Tumor cell lines were purchased from ATCC (American Type Culture Collection, Manassas, Va.). All cell lines were maintained in RPMI 1640 (Hyclone) supplemented with 10% fetal bovine serum (FBS, Hyclone), glutamine (2 mM, Hyclone), and antibiotics (penicillin 100 U/mL and streptomycin 50 μg/mL) at 37° C. in a humidified atmosphere of 5% CO2 in air. Taxol (as a positive control, Sigma) and compounds were dissolved in DMSO (Sigma), and the final concentration of DMSO in the medium was 1%. Tumor cells were plated in 96-well plates at densities of about 2000 (A375) or 4000 (A549 and Colo205) cells/well of a 96-well plate and allowed to adhere/grow for 24 h. They were then treated with various concentrations of drug and incubated for 72 h. For MTT method, medium was then removed by inverting and tapping the plates. 100 μL of MTT (0.5 mg/ml) was added to each well followed by an incubated at 37° C. for 4 h. MTT was then removed and 200 μL of DMSO was added to each well, and the ODs at 570 nm were measured after a 5 second shaking cycle in a 96-well spectrophotometer. For MTS method, 20 μL MTS (CellTiter 96 Aqueous One Solution, Promega) was added to each well followed by an incubated at 37° C. for 2-4 h, solutions were then directly put in a 96-well spectrophotometer, and the ODs at 490 nm were measured.
All concentrations of compounds were tested in triplicate and controls were averaged over 4 wells. IC50 was calculated by plotting the concentration of compound vs the percentage of inhibition in treated wells using GraphPad Prism 5. […] The scale utilized in Tables […] is as follows: +++ less than 1000 nM; ++ between 1000 nM and 5000 nM; and + greater than 5000 nM. The scale utilized in Table 8 is as follows: +++ less than 2000 nM; ++ between 2000 nM and 5000 nM; and + greater than 5000 nM.

BRAF V600E = BRAF V600E (Homo sapiens (Human), UniProt P15056, V600E); test: Inhibitory activity against kinase BRAF V600E, Z'-LYTE method (Invitrogen); assay type: biochemical; conditions: for inhibition at 1 µM: read-out: Inhibition (% inhibition at 1 μM) against BRAF V600E
Summary of the method: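 FRET-based Z′-LYTE peptide-phosphorylation assay in 50 mM HEPES pH 7.5, 0.01% BRIJ-35, 10 mM MgCl2, 1 mM EGTA; kinase reaction 60 min at room temperature, then 60 min development before fluorescence read. IC50 from concentration vs % inhibition; single-point % inhibition tested at 1 μM.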

BRAF = BRAF (Homo sapiens (Human), UniProt P15056); test: Inhibitory activity against kinase BRAF, Z'-LYTE method (Invitrogen); assay type: biochemical; conditions: 1 μM compound
Method: Inhibitory activities Inhibitory activities of compounds against BRAF, and BRAF V600E were measured by Invitrogen using Z′-LYTE® Method as briefly described in the following. 4× Test compounds are dissolved in 1% DMSO. […] ATP solutions are diluted to a 4×ATP working concentration in Kinase Buffer (50 mM HEPES pH 7.5, 0.01% BRIJ-35, 10 mM MgCl2, 1 mM EGTA). Reaction started by 30-second shaking of mixture consisting of 2.5 μL 4× test compound, […] and 2.5 μL 4×ATP Solution on Bar-coded Corning, low volume NBS, black 384-well plate (Corning Cat. #3676). Then the mixture was incubated for 60-minute at room temperature for the kinase reaction, followed by addition of 5 μL of a 1:1024 dilution of development reagent A and 30-second plate shake. The mixture was then incubated for another 60-minute at room temperature for development reaction. Fluorescence was read by plate reader. IC50 was calculated by plotting the concentration of compound vs the percentage of inhibition in treated wells using GraphPad Prism 5.
Table 2 and 3 show % inhibition at 1 μM of several compounds of the invention against BRAF and BRAF V600E, respectively, using Z′-LYTE® method.

Colo205 tumor xenograft = test: Inhibition of tumor growth in Colo205 tumor xenograft model; assay type: in vivo, BALB/c female nude mice; conditions: 30 mg/kg, qd × 14, i.p.
Method: Cells were implanted in BALB/c female nude mice and grown as tumor xenografts. When tumors achieved 120-200 mm^3, mice were assigned into treatment and control groups using randomized block design based upon their tumor volumes. Each group contained 6 tumor-bearing mice. Tumors were measured twice weekly in two dimensions using a caliper, and the tumor volume was calculated from two-dimensional measurements using the equation V=0.5×a×b^2 where a and b are the long and short diameters of the tumor, respectively. Relative tumor volume (RTV) was defined as TVt/TVi, the ratio of the volume on a given day (TVt) and the volume at the start of treatment (TVi). Relative tumor growth rate (T/C) was defined as RTVT/RTVC, the ratio of relative tumor volume of treatment group (RTVT) and relative tumor volume of control group (RTVC) on a given day. Inhibition of tumor growth in a Colo205 tumor xenograft model is shown below in Table 10 for a compound of Table 1.

KDR (VEGFR2), sequence (P35968 20-1356): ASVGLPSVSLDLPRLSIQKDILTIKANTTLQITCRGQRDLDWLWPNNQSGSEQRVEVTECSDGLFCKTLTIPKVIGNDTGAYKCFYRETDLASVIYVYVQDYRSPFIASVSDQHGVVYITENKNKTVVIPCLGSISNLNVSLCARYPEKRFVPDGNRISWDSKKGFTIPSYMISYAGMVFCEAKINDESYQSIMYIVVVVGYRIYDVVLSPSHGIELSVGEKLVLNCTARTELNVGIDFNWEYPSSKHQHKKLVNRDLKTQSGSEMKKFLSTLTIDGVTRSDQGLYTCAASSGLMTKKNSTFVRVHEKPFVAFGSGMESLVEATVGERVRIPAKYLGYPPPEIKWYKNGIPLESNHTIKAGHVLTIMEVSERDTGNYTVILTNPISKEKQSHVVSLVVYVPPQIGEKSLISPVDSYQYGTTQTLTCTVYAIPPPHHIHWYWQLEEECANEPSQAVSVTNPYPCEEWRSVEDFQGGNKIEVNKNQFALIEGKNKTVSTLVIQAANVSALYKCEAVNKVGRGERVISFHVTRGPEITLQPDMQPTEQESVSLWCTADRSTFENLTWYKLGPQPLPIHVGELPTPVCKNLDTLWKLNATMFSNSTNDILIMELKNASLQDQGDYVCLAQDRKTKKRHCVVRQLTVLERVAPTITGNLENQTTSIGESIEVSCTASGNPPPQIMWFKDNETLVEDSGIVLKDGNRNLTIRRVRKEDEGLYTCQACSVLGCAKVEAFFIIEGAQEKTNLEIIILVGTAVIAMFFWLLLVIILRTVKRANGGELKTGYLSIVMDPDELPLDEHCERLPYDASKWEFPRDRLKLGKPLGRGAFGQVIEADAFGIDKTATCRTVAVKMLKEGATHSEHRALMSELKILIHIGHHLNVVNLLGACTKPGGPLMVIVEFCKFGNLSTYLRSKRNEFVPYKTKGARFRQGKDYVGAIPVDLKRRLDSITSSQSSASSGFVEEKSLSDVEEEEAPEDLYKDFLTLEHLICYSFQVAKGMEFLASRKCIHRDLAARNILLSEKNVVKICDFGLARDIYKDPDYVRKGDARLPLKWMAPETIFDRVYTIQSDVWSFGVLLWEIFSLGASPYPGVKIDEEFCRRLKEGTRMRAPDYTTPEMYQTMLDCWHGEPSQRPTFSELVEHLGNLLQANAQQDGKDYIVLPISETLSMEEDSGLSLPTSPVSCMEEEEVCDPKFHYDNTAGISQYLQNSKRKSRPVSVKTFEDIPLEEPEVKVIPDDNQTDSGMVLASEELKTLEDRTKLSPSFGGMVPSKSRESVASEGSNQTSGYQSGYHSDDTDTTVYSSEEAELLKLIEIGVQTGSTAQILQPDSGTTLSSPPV
BRAF V600E, sequence (P15056 whole entry V600E): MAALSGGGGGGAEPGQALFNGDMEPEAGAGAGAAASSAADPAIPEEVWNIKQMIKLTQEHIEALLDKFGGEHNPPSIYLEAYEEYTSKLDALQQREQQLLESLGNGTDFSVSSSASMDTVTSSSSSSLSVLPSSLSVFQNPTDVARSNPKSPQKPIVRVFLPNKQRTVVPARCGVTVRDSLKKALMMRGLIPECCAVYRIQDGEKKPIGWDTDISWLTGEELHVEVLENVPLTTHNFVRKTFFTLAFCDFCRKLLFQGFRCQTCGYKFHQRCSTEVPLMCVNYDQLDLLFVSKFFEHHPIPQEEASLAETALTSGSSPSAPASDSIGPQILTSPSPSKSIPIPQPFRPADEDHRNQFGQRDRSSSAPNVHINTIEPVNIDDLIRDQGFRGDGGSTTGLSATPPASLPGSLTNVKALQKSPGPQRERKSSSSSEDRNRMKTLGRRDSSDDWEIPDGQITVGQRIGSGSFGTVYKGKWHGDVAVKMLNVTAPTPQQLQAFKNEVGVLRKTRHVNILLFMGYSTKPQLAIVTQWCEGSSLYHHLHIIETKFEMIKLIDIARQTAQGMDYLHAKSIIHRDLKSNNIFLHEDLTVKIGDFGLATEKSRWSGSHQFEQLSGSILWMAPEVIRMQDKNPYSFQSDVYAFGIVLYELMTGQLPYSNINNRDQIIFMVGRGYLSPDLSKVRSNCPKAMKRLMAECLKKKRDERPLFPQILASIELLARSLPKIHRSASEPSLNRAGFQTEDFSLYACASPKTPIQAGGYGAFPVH
BRAF, sequence (P15056 whole entry): as the sequence (P15056 whole entry V600E) above, with E600V counted along it

O=C(Nc1cccc(Oc2ccc3nccnc3c2)c1)Nc1ccc(Cl)c(C(F)(F)F)c1 [Compound C001, 1-(4-chloro-3-(trifluoromethyl)phenyl)-3-(3-(quinoxalin-6-yloxy)phenyl)urea]
IC50 (A549 cells): < 2 µM
IC50 (KDR (VEGFR2)): < 0.1 µM
inhibition at 1 µM (KDR (VEGFR2); 1 μM compound): > 89%
IC50 (A375 cells): 1 to 5 µM
IC50 (Colo205 cells): 1 to 5 µM
IC50 (BRAF V600E): > 0.1 µM
inhibition at 1 µM (BRAF V600E; 1 μM compound): > 89%

O=C(Nc1ccc(Cl)cc1)Nc1cccc(Oc2ccc3ncc(N4CCOCC4)nc3c2)c1 [Compound C048, 1-(4-chlorophenyl)-3-(3-((3-morpholinoquinoxalin-6-yl)oxy)phenyl)urea]
inhibition at 1 µM (BRAF): 70 to 89%
IC50 (A549 cells): 2 to 5 µM
inhibition at 1 µM (KDR (VEGFR2); 1 μM compound): 70 to 89%
IC50 (A375 cells): 1 to 5 µM
inhibition at 1 µM (BRAF V600E; 1 μM compound): > 89%

O=C(Nc1cc(F)cc(F)c1)Nc1ccc(F)c(Oc2ccc3ncc(N4CCOCC4)nc3c2)c1 [Compound C054, 1-(3,5-difluorophenyl)-3-(4-fluoro-3-((3-morpholinoquinoxalin-6-yl)oxy)phenyl)urea]
inhibition at 1 µM (BRAF): < 70%
IC50 (A549 cells): > 5 µM
inhibition at 1 µM (KDR (VEGFR2); 1 μM compound): < 70%
IC50 (A375 cells): 1 to 5 µM
inhibition at 1 µM (BRAF V600E; 1 μM compound): > 89%

O=C(Nc1ccc(F)c(Oc2ccc3ncc(N4CCNCC4)nc3c2)c1)Nc1ccc(Cl)c(C(F)(F)F)c1 [Compound C066, 1-(4-chloro-3-(trifluoromethyl)phenyl)-3-(4-fluoro-3-((3-(piperazin-1-yl)quinoxalin-6-yl)oxy)phenyl)urea]
inhibition at 1 µM (BRAF): < 70%
IC50 (A549 cells): < 2 µM
inhibition at 1 µM (KDR (VEGFR2); 1 μM compound): > 89%
IC50 (A375 cells): 1 to 5 µM
inhibition at 1 µM (BRAF V600E; 1 μM compound): > 89%

N#Cc1ccc(NC(=O)Nc2cccc(Oc3ccc4nccnc4c3)c2)cc1 [Compound C070, 1-(4-cyanophenyl)-3-(3-(quinoxalin-6-yloxy)phenyl)urea]
inhibition at 1 µM (BRAF): > 89%
IC50 (A549 cells): > 5 µM
inhibition at 1 µM (KDR (VEGFR2); 1 μM compound): > 89%
IC50 (A375 cells): > 5 µM
inhibition at 1 µM (BRAF V600E; 1 μM compound): > 89%

N#Cc1ccc(NC(=O)Nc2cccc(Oc3ccc4nccnc4c3)c2)cc1C(F)(F)F [Compound C073, 1-(4-cyano-3-(trifluoromethyl)phenyl)-3-(3-(quinoxalin-6-yloxy)phenyl)urea]
inhibition at 1 µM (BRAF): < 70%
IC50 (A549 cells): 2 to 5 µM
inhibition at 1 µM (KDR (VEGFR2)): 70 to 89%
IC50 (A375 cells): > 5 µM
inhibition at 1 µM (BRAF V600E): > 89%

O=C(Nc1ccc(Oc2ccc3nccnc3c2)cc1)Nc1cccc(C(F)(F)F)c1 [Compound C075, 1-(4-(quinoxalin-6-yloxy)phenyl)-3-(3-(trifluoromethyl)phenyl)urea]
inhibition at 1 µM (BRAF): < 70%
IC50 (A549 cells): 2 to 5 µM
IC50 (KDR (VEGFR2)): > 0.1 µM
inhibition at 1 µM (KDR (VEGFR2); 1 μM compound): 70 to 89%
IC50 (A375 cells): 1 to 5 µM
IC50 (BRAF V600E): > 0.1 µM
inhibition at 1 µM (BRAF V600E; 1 μM compound): > 89%

O=C(Nc1ccc(F)cc1)Nc1ccc(Oc2ccc3ncc(N4CCOCC4)nc3c2)cc1 [Compound C082, 1-(4-fluorophenyl)-3-(4-((3-morpholinoquinoxalin-6-yl)oxy)phenyl)urea]
inhibition at 1 µM (BRAF): < 70%
inhibition at 1 µM (KDR (VEGFR2); 1 μM compound): 70 to 89%
IC50 (Colo205 cells): > 5 µM
inhibition at 1 µM (BRAF V600E; 1 μM compound): > 89%

O=C(Nc1ccc(Oc2ccc3ncc(N4CCNCC4)nc3c2)cc1)Nc1ccc(F)c(C(F)(F)F)c1 [Compound C087, 1-(4-fluoro-3-(trifluoromethyl)phenyl)-3-(4-((3-(piperazin-1-yl)quinoxalin-6-yl)oxy)phenyl)urea]
inhibition at 1 µM (BRAF): 70 to 89%
IC50 (A549 cells): < 2 µM
inhibition at 1 µM (KDR (VEGFR2); 1 μM compound): > 89%
IC50 (A375 cells): 1 to 5 µM
IC50 (Colo205 cells): 1 to 5 µM
inhibition at 1 µM (BRAF V600E; 1 μM compound): > 89%
T/C (relative tumor growth rate) (Colo205 tumor xenograft): 81%
Tumor Volume Post-treatment (Colo205 tumor xenograft; after treatment): 796.35 mm^3
Tumor Volume Pre-treatment (Colo205 tumor xenograft; before treatment): 237.13 mm^3

O=C(Nc1ccc(Oc2ccc3ncc(N4CCNCC4)nc3c2)cc1)Nc1ccc(C(F)(F)F)cc1 [Compound C088, 1-(4-((3-(piperazin-1-yl)quinoxalin-6-yl)oxy)phenyl)-3-(4-(trifluoromethyl)phenyl)urea]
inhibition at 1 µM (BRAF): < 70%
IC50 (A549 cells): 2 to 5 µM
inhibition at 1 µM (KDR (VEGFR2); 1 μM compound): > 89%
IC50 (A375 cells): 1 to 5 µM
inhibition at 1 µM (BRAF V600E; 1 μM compound): > 89%

O=C(Nc1ccc(F)cc1)Nc1ccc(Oc2ccc3ncc(N4CCNCC4)nc3c2)cc1 [Compound C090, 1-(4-fluorophenyl)-3-(4-((3-(piperazin-1-yl)quinoxalin-6-yl)oxy)phenyl)urea]
inhibition at 1 µM (BRAF): 70 to 89%
IC50 (A549 cells): < 2 µM
inhibition at 1 µM (KDR (VEGFR2); 1 μM compound): > 89%
IC50 (A375 cells): 1 to 5 µM
inhibition at 1 µM (BRAF V600E; 1 μM compound): > 89%

O=C(Nc1ccc(Oc2ccc3ncc(N4CCNCC4)nc3c2)cc1)Nc1cccc(Cl)c1 [Compound C091, 1-(3-chlorophenyl)-3-(4-((3-(piperazin-1-yl)quinoxalin-6-yl)oxy)phenyl)urea]
inhibition at 1 µM (BRAF): > 89%
IC50 (A549 cells): 2 to 5 µM
inhibition at 1 µM (KDR (VEGFR2); 1 μM compound): > 89%
IC50 (A375 cells): 1 to 5 µM
inhibition at 1 µM (BRAF V600E; 1 μM compound): > 89%

O=C(Nc1ccc(Cl)cc1)Nc1ccc(Oc2ccc3ncc(N4CCNCC4)nc3c2)cc1 [Compound C092, 1-(4-chlorophenyl)-3-(4-((3-(piperazin-1-yl)quinoxalin-6-yl)oxy)phenyl)urea]
inhibition at 1 µM (BRAF): > 89%
IC50 (A549 cells): 2 to 5 µM
inhibition at 1 µM (KDR (VEGFR2); 1 μM compound): 70 to 89%
IC50 (A375 cells): > 5 µM
inhibition at 1 µM (BRAF V600E; 1 μM compound): > 89%

O=C(Nc1cccc(Cl)c1)Nc1ccc(Oc2ccc3nccnc3c2)cc1F [Compound C093, 1-(3-chlorophenyl)-3-(2-fluoro-4-(quinoxalin-6-yloxy)phenyl)urea]
inhibition at 1 µM (BRAF): 70 to 89%
IC50 (A549 cells): > 5 µM
inhibition at 1 µM (KDR (VEGFR2); 1 μM compound): 70 to 89%
IC50 (A375 cells): > 5 µM
inhibition at 1 µM (BRAF V600E; 1 μM compound): > 89%
